Experimental data reported in patent US9480754B2, “Phospholipid ether analogs as cancer-targeting drug vehicles” (Cellectar Biosciences, Inc., priority 2014, dated 2016).

How the values were obtained:
[1] = test system: human RL-251 tumor xenograft; assay: Retention of 131I-CLR1404 by RL-251 tumor xenograft; assay type: in vivo, SCID mouse; conditions: FIG. 3
Description: FIG. 3. Prolonged retention of ^131I-CLR1404 by human RL-251 tumor xenograft in SCID mouse.
CLR1404 is a PLE. Results obtained in a variety of tumor models indicate that CLR1404 is sequestered and selectively retained by cancer cells and cancer stem cells. […] CLR1404 localizes in both primary and metastatic lesions regardless of anatomic location including those found in lymph nodes. See Examples 3-8.

[2] = CLR1404 tumor selectivity across 60 tumor models; assay type: in vivo, rodent; conditions: athymic nude (Hsd:Athymic Nude-Foxn1nu or Crl:NU-Foxn1nu), tumor, intravenous; xenograft, orthotopic, transgenic and spontaneous rodent models; read-out: tumor models showing selective uptake and prolonged retention
Procedure: All described animal studies were performed according to animal protocols approved by the Institutional Animal Care and Use Committee. Female athymic nude mice (Hsd:Athymic Nude-Foxnlnu or Crl:NU-Foxnlnu, Charles River Laboratories) about 4 to 5 weeks of age, 16 to 18 g (n=6), were used for human tumor xenograft studies. Mice were anesthetized with isoflurane and injected subcutaneously with viable tumor cells in 100 μl of Dulbecco's PBS (or, for glioma cells, […] of PBS) into the right flank. Inoculum sizes were 1×10^6 (for renal, ovarian, glioma, pancreatic, prostate, and NSCLC models), […] (for colorectal and uterine models), or 3×10^6 (breast).
Radioiodinated ^124I-CLR1404 was tested in subcutaneous and orthotopic xenografts of 60 different spontaneous, transgenic, human, and rodent malignant cell lines and tumor types. […] Representative examples are of both human (FIG. 5A-5I) and rodent (FIG. 5J-M) tumors.

[3] = test system: non-small cell lung carcinoma (NSCLC); assay: Clinical imaging of advanced NSCLC patients with 131I-CLR1404; assay type: in vivo, human; conditions: two patients, injection of <1 mCi 131I-CLR1404, gamma imaging
Procedure: To date, two patients with advanced NSCLC were imaged after an injection of <1 mCi of ^131I-CLR1404. Blood and urine samples were collected at predetermined times, and gamma imaging performed at several time points following administration.
Materials and Methods: Following intravenous injection of iodine-131 labeled CLR1404 (1 mCi/20 μg), patients with advanced NSCLC where scanned at 3, 6, 24, 48, 96 h and at 7 and 11 days on a GE Maxxus dual Head SPECT scanner. Blood and urine samples were collected for pharmacokinetic analysis as well as clinical hematologic, renal, and hepatic bioanalysis.

PC-3 (Prostate) = assay: Cell viability IC50, PC-3; assay type: cell-based
Procedure: The cell lines were then measured for cell viability and reported as IC50 for each treatment.

MDA-MB-468 cells [4] = assay: Annexin V/PI flow cytometry, MDA-MB-468; assay type: cell-based; conditions: table title 72 hours, text: paclitaxel for 24 hours
Procedure: Debris was eliminated from this analysis.
MDA-MB-468 cells, were also treated with CLR conjugates (CLR1606 and CLR1607) for 72 hours and with geldanamycin (“GEL”) for 48 hours.
CLR conjugates appear to require a longer treatment period with cells to induce cell death.

MDA-MB-468 cells [5] = assay: Annexin V/PI flow cytometry, MDA-MB-468; assay type: cell-based; conditions: 48 hrs

IC50 (PC-3 (Prostate)) [nM]	SMILES	time remaining in cancer cells [1]	number of tumor models with selective uptake [2]	tumor uptake and retention in the primary lung tumor [3]	Live (MDA-MB-468 cells [4]; MDA-MB-468, PTX 100 nM)	Live (MDA-MB-468 cells [4]; MDA-MB-468, PTX 1 uM)	Live (MDA-MB-468 cells [5]; MDA-MB-468, 100 nM)	Live (MDA-MB-468 cells [5]; MDA-MB-468, 1 uM)
–	C[N+](C)(C)CCOP(=O)([O-])OCCCCCCCCCCCCCCCCCCc1ccc(I)cc1 [CLR1404, 18-(p-Iodophenyl)octadecyl phosphocholine]	up to 20 days	> 55	significant tumor uptake and retention	–	–	–	–
0.9	CC(=O)O[C@H]1C(=O)[C@@]2(C)[C@H]([C@H](OC(=O)c3ccccc3)[C@]3(O)C[C@H](OC(=O)[C@H](O)[C@@H](NC(=O)c4ccccc4)c4ccccc4)C(C)=C1C3(C)C)[C@]1(OC(C)=O)CO[C@@H]1C[C@@H]2O [Paclitaxel, paclitaxel, reference compound]	–	–	–	53.8 % of total cells	48.9 % of total cells	77.9 % of total cells	73.3 % of total cells
